Experimental data taken from US10570117B2, “Phenylimidazole compound” (Otsuka Pharmaceutical Factory, Inc., priority 2015, dated 2020).
Values after ≈ are worked out from the molar mass of the structure shown. Like-named read-outs stand apart in the source and are kept apart here.

Columns and labels:
[1] = test system: lipoprotein lipase (LPL) gene; experiment: LPL mRNA elevating action (RT-PCR quantification of LPL mRNA in C2Cl2 cells); format: cell-based, mouse; conditions: Mus musculus, 24 h, compound 10 μM, ratio relative to the amount of LPL mRNA in cells with DMSO only, read-out: Rate of increase in LPL mRNA
Protocol: LPL mRNA Elevating Action
C2Cl2 cells (cell strain derived from striated muscle of mouse) were seeded in 96-well plates using a DMEM medium (Gibco) (containing 2 mM L-glutamine and 10% fetal bovine serum). After the cells were grown, the medium was removed. Subsequently, media obtained by adding dimethyl sulfoxide (DMSO) solutions of the compounds to the same medium as described above to a concentration of 10 μM were individually added to the cells and allowed to stand for 24 hours. The compound-containing media were removed, and the plates were washed with phosphate buffered saline. Thereafter, the remaining cells were lysed and subjected to a reverse transcription polymerase chain reaction (RT-PCR reaction) to obtain cDNA. Primers specific to lipoprotein lipase (LPL) gene, a necessary enzyme, etc., were added to the obtained cDNA. The mixture was set in 7500 Fast Real Time PCR System produced by Applied Biosystem to perform a PCR reaction (20 cycles) and the amount of LPL mRNA amplified was quantified. The LPL mRNA elevating action of each compound in the test cells was indicated as the ratio relative to the amount of LPL mRNA in cells allowed to stand in a medium to which only DMSO was added, with the amount being defined as 1.
As Comparative Example 1, a test was performed in the same manner as above, using a compound disclosed as the compound of Example 57 in WO2010/090200.

[2] = Solubility in gastric juice or intestinal juice model fluid (precipitation method using DMSO); format: physicochemical; conditions: room temperature
Procedure, shortened: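 Dissolved amount (μg/mL) quantified by UV of filtrate versus pre-made calibration curves. Precipitation approach: DMSO solutions spiked into pH 1.2 (JP 1st fluid) or pH 6.8 (JP 2nd fluid) medium, shaken at room temperature for 24 h before insolubles were filtered off.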

[3] = pH 1.2, simulated gastric fluid, kinetic from dmso stock, 1st fluid for Disintegration Test of Japanese Pharmacopoeia (pH: 1.2), read-out: Solubility (μg/mL) 1st fluid
[4] = pH 6.8, kinetic from dmso stock, 2nd fluid for Disintegration Test of Japanese Pharmacopoeia (pH: 6.8), read-out: Solubility (μg/mL) 2nd fluid

Structure (SMILES) | fold induction at 10 µM [1] | solubility at 24 h [2, 3] [µg/mL] | solubility at 24 h [2, 4] [µg/mL] | melting point
COc1cc(OCc2ccc(C(F)(F)F)nc2)ccc1-c1c[nH]c(-c2ccc(F)nc2)n1 [Example 1, 2-fluoro-5-[5-[2-methoxy-4-((6-(trifluoromethyl)pyridin-3-yl)methoxy)phenyl]-1H-imidazol-2-yl]pyridine] | 2.97 | 20.7 (≈ 46.6 µM) | 1.7 (≈ 3.83 µM) | 165 to 166 °C
COc1cc(OCc2ccc(C(F)(F)F)nc2)ccc1-c1[nH]c(C2CCC(F)(F)CC2)nc1C [Example 6] | 4.44 | 91.5 (≈ 190 µM) | 47 (≈ 97.6 µM) | 167 to 169 °C
COc1cc(OCc2coc(C)n2)ccc1-c1cnc(C2CCC(F)(F)CC2)[nH]1 [Example 13] | 2.31 | > 81 | 74 (≈ 183 µM) | 52 to 63 °C
COc1cc(OCc2ccc(C(F)(F)F)nc2)c(C)cc1-c1cnc(-c2ccc(F)nc2)[nH]1 [Example 15] | 4.27 | 7.8 (≈ 17 µM) | < 8.1 | 199 to 201 °C (dec.)
COc1cc(-c2cnc(C3CCC(F)(F)CC3)[nH]2)ccc1OCc1ccc(C(F)(F)F)nc1 [Example 16] | 3.14 | 90.8 (≈ 194 µM) | 13.4 (≈ 28.7 µM) | 162 to 167 °C
COc1cc(OCc2ccc(C(F)(F)F)nc2)ccc1-c1cnc(C2CCC(F)(F)CC2)[nH]1 [Example 17] | 3.2 | > 93 | 3 (≈ 6.42 µM) | 62 to 72 °C
COc1cc(OCc2ccc(C(F)(F)F)cn2)ccc1-c1c[nH]c(-c2ccc(O)nc2)n1 [Example 18] | 1.05 | 43.5 (≈ 98.3 µM) | 3.7 (≈ 8.36 µM) | > 250 °C
COc1cc(OCc2coc(C)n2)ccc1-c1c[nH]c(-c2ccc(Cl)nc2)n1 [Example 19] | 1.7 | 76.7 (≈ 193 µM) | 2.2 (≈ 5.54 µM) | 168 to 171 °C
COCCOc1cc(OCc2ccc(C(F)(F)F)cn2)ccc1-c1c[nH]c(-c2ccc(Cl)nc2)n1 [Example 21] | 1.99 | 3 (≈ 5.94 µM) | < 1.8 | 162 to 167 °C
COc1cc(OCc2cnc(C)cn2)ccc1-c1c[nH]c(-c2ccc(Cl)nc2)n1 [Example 22] | 2.22 | 7.5 (≈ 18.4 µM) | 1.6 (≈ 3.92 µM) | 199 to 201 °C
COc1cc(OCc2ccc(C(F)(F)F)nc2)ccc1-c1nc(-c2ccc(F)cn2)[nH]c1C [Example 23] | 2.94 | 13.1 (≈ 28.6 µM) | < 1.6 | 140 to 142 °C
COc1cc(OCc2ccc(C(F)(F)F)nc2)ccc1-c1nc(-c2ccc(F)nc2)[nH]c1C [Example 24] | 2.94 | 53.6 (≈ 117 µM) | 1.8 (≈ 3.93 µM) | 169 to 171 °C
COc1cc(OCc2ccc(C(F)(F)F)cn2)ccc1-c1nc(-c2ccc(F)cn2)[nH]c1C [Example 25] | 2.68 | 83.1 (≈ 181 µM) | 1 (≈ 2.18 µM) | 180 to 182 °C
COc1cc(OCc2ccc(C(F)(F)F)nc2)ccc1-c1nc(-c2ccc(Cl)cn2)[nH]c1C [Example 27] | 2.45 | 5.9 (≈ 12.4 µM) | 0.5 (≈ 1.05 µM) | 157 to 159 °C
COc1cc(OCc2ccc(C(F)(F)F)cc2)ccc1-c1nc(-c2ccc(Cl)cn2)[nH]c1C [Example 34] | 2.22 | 17 (≈ 35.9 µM) | < 0.3 | 170 to 173 °C
COc1cc(OCc2ccc(C(F)(F)F)cn2)ccc1-c1c[nH]c(-c2ccc(S(C)(=O)=O)nc2)n1 [Example 38] | 2.25 | 60.5 (≈ 120 µM) | 0.9 (≈ 1.78 µM) | 213 to 214 °C
COc1cc(OCc2ccc(C(F)(F)F)cn2)ccc1-c1nc(-c2ccc(F)nc2)[nH]c1C [Example 39] | 2.7 | > 99 | 5.2 (≈ 11.3 µM) | 141 to 150 °C
COc1cc(OCc2ccc(C(F)(F)F)cn2)ccc1-c1c[nH]c(-c2cccc(N3CCCC3)n2)n1 [Example 40] | 0.93 | 6.9 (≈ 13.9 µM) | 2.8 (≈ 5.65 µM) | 100 to 108 °C
COc1cc(OCc2ccc(C(F)(F)F)cn2)ccc1-c1c[nH]c(-c2ccc(Cl)cn2)n1 [Example 42] | 2.27 | 8.6 (≈ 18.7 µM) | 2.3 (≈ 4.99 µM) | 147 to 150 °C
COc1cc(OCc2ncccc2C(F)(F)F)ccc1-c1c[nH]c(-c2ccc(Cl)nc2)n1 [Example 43] | 3.48 | 16.2 (≈ 35.2 µM) | 3.4 (≈ 7.38 µM) | 185 to 187 °C
COc1cc(OCc2ccc(S(=O)(=O)OC)cn2)ccc1-c1c[nH]c(-c2ccc(Cl)nc2)n1 [Example 44] | 1.14 | 11.9 (≈ 24.4 µM) | 0.7 (≈ 1.44 µM) | 232 to 235 °C (dec.)
COc1cc(OCc2ccncn2)ccc1-c1c[nH]c(-c2ccc(Cl)nc2)n1 [Example 45] | 1.09 | 27.8 (≈ 70.6 µM) | < 0.3 | 221 to 224 °C
COc1cc(-c2c[nH]c(-c3ccc(F)nc3)n2)cc(OC)c1OCc1ccc(C(F)(F)F)cn1 [Example 46] | 2.49 | 22.9 (≈ 48.3 µM) | < 9.1 | 107 to 110 °C
COc1cc(-c2c[nH]c(-c3ccc(Cl)nc3)n2)ccc1OCc1cccc(F)n1 [Example 47] | 3.26 | 5.1 (≈ 12.4 µM) | 0.3 (≈ 0.73 µM) | 185 to 187 °C
COc1cc(OCc2ccc(C(F)(F)F)nc2)ccc1-c1nc(-c2ccc(Cl)nc2)[nH]c1C [Example 49] | 3.46 | 8.7 (≈ 18.3 µM) | 0.9 (≈ 1.9 µM) | 196 to 199 °C
COc1cc(OCc2cccc(C#N)n2)ccc1-c1c[nH]c(C2CCCCC2)n1 [Example 55] | 4.24 | > 78 | 2.3 (≈ 5.92 µM) | 182 to 187 °C
COc1cc(-c2c[nH]c(-c3ccc(Cl)nc3)n2)c(OC)cc1OCc1ccc(C(F)(F)F)cn1 [Example 56] | 2.57 | 4.8 (≈ 9.78 µM) | 0.8 (≈ 1.63 µM) | 204 to 206 °C
COc1c(OCc2ccc(C(F)(F)F)cn2)ccc(-c2c[nH]c(C3CCC(F)(F)CC3)n2)c1OC [Example 57] | 3.72 | > 99 | 0.8 (≈ 1.61 µM) | 155 to 157 °C
Fc1ccc(-c2nc(F)c(-c3ccc(OCc4ncc(C(F)(F)F)cc4F)cc3)[nH]2)cn1 [Example 356] | 2.06 | – | – | 222 to 227 °C
